The subject of data set [1] is central dopamine receptor. Put plainly: Ungerstedt test: turning in rats lesioned unilaterally with 6-hydroxy-dopamine (anti-parkinson). In kind it is in vivo, rat. As for the experimental part:
In particular the compounds are useful as central dopamine receptor agents for the treatment of e.g. Morbus Parkinson as indicated in standard tests. For example in rates lesioned unilaterally in the nigro-neostratal dopamine pathway by the effect of a 6-hydroxy-dopamine injection in the substantia nigra the compounds at doses of between about 3 and about 30 mg/kg p.o., according to the method of U.Ungerstedt Acta.physiol.scand.Suppl.387, 69-93 (1971) and substantially the same as that described by J. M. Vigouret et al., Pharmacology 16 (Suppl.1) 156-193 (1978), induce turning in the direction of the non-denerved side over a long period of time, e.g. several hours.

Another data set relates to implantation. Nature of the data set: inhibition of implantation in female rats. In kind it is in vivo. Conditions: Rattus norvegicus, sc, read-out: ED50 Implantation. From the text:
The effects are for an unexpectedly long period e.g. several hours.

Data set [2] is described as follows: tolerability in the beagle dog. The format is in vivo. Conditions: p.o.

We go through three molecules from patent US4791116A, “N,N-diethyl-N'-[(8α)-1-ethyl-6-methyl-ergolin-8-yl]-sulfamide useful as prolactin secretion inhibitor, anti-parkinson agents and anti-depressant agents” (priority 1983, dated 1988).

Where two headings read alike, the source gives them in different places.

In general, ED50 refers to the midpoint of the dose-response relation.

Consider `CCN(CC)S(=O)(=O)N[C@H]1C[C@@H]2c3cccc4c3c(cn4C(C)C)C[C@H]2N(C)C1` [Example 2, N,N-Diethyl-N'-[(8α)-1-isopropyl-6-methylergolin-8-yl]sulfamide], for which, in data set [1] (3 mg/kg p.o., over 7 hours), the “Ungerstedt test, No of rotations” value was determined as 1608. In addition, the ED50 with implantation (female rats, s.c.) came to 0.08 mg/kg.

In the case of `CC(C)C[C@H]1C(=O)N2CCC[C@H]2[C@]2(O)O[C@](NC(=O)[C@@H]3C=C4c5cccc6[nH]c(Br)c(c56)C[C@H]4N(C)C3)(C(C)C)C(=O)N12` [Bromocriptine, reference compound], the “Ungerstedt test, No of rotations” value in data set [1] (at 0.1 mg/kg s.c.) turned out to be 80. Moreover, the 50% effective dose (ED50) with implantation was determined as 0.75 mg/kg.

Consider `CCN(CC)S(=O)(=O)N[C@H]1C[C@@H]2c3cccc4c3c(cn4CC)C[C@H]2N(C)C1` [Example 1, N,N-Diethyl-N'-[(8α)-1-ethyl-6-methyl-ergolin-8-yl]-sulfamide], for which the “Ungerstedt test, No of rotations” value in data set [1] (3 mg/kg p.o., over 7 hours) came to 774. Further, the “anti-parkinson activity relative to prolactin secretion activity” value in data set [1] (comparison with prolactin secretion tests) is recorded as “particularly patent anti-parkinson activity relative to prolactin secretion activity”. Also, in data set [2], the emetic effects result is reported as “few emetic effects”. Also, the ED50 in the data set on implantation (female rats, s.c.) is 0.23 mg/kg.
